Patent publication US20250353891A1 (MEDIMMUNE LIMITED, priority 2022, published 2025)
pEC50: −log10 of the molar value. Read-outs that look alike come from different tables or passages of the source. Starred links: 1 amine or outer side, 2 acyl side, 3 side chain; linkers in the order of their positions; H or OH if unused. Non-standard residues stand in square brackets, D forms with d. Residues, ends and D or L forms follow the SMILES beside them. Groups on a side chain read outwards from the residue. *: point of attachment. C18 diacid = O=C(O)CCCCCCCCCCCCCCCCC(=O)*; γGlu = O=C(O)[C@H](CCC(=O)[*:2])N[*:1]; Stearoyl = CCCCCCCCCCCCCCCCCC(=O)*; αMeF = C[C@](N)(Cc1ccccc1)C(=O)O; PEG2 = NCCOCCOCCC(=O)O; AEEA = NCCOCCOCC(=O)O; Aib = CC(C)(N)C(=O)O

How the values were obtained:
[1] = Proteolytic resistance to FasSSIF/Pancreatin; assay type: in vitro ADME; conditions: simulated intestinal fluid
Summary of the method: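 Peptide (1.0 mg) in pre-warmed FasSSIF, proteolysis started with fresh FasSSIF/USP Pancreatin and held at 37 °C. Aliquots at 0, 5, 10, 15, 30 min quenched in 10% TFA; remaining intact peptide estimated by RP-HPLC peak area, UV 210 nm.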

[2] = Proteolytic resistance to FasSSGF containing porcine pancreatic pepsin; assay type: in vitro ADME; conditions: pig, simulated gastric fluid
Protocol: Stimulated Gastric Fluid (FasSSGF) Containing Porcine Pancreatic Pepsin Lyophilized porcine pancreatic pepsin (Sigma: P7012) was reconstituted to 0.5 mg/mL (˜2500 units/mL) in freshly prepared FasSSGF (Biorelevant media) to give the enzyme stock solution. Peptide stock solution was prepared to a concentration of 250 μM (˜1.0 mg/mL) in FasSSGF. 200 μL ([…], ˜250 units) of pepsin stock solution was added to 200 μL of peptide solution (1.0 mg/mL, ˜100 μg of peptide, ˜25 nmoles) and the mixture was co-incubated in a temperature-regulated incubator at 37° C. for the duration of the experiment. 30 μL aliquot of the peptide-enzyme mixture was periodically withdrawn (t=0, 5, 10, 15, and 30 min) and quenched immediately by addition of 80 μL of 0.1M ammonium bicarbonate solution in water/acetonitrile (4:1, pH 8) to arrest proteolytic activity. 30 μL aliquot was analyzed by analytical RP-HPLC. Analytical RP-HPLC method: Agilent Polaris C8-A column (4.6×100 mm, 3 micron) eluted with a linear binary gradient of 10-90% MeCN (0.1% TFA v/v) in water (0.1% TFA v/v) over either 10 or 15 mins at 1.5 mL min-1 at 40° C. with detection by UV absorption at 210 nm. Manual integration (AUC) allowed estimation of remaining intact peptide over the time course of the experiment.

recombinant Neprilysin = target: T1, recombinant Neprilysin (Homo sapiens, UniProt P08473); assay: Proteolytic resistance to neprilysin; assay type: in vitro ADME; conditions: pH 8.3; for remaining at 4 h / remaining at 24 h: isolated enzyme neprilysin
T1 construct: purchased R&D Systems 1182-ZNC-010
T1 sequence (P08473 52-750 limits assumed): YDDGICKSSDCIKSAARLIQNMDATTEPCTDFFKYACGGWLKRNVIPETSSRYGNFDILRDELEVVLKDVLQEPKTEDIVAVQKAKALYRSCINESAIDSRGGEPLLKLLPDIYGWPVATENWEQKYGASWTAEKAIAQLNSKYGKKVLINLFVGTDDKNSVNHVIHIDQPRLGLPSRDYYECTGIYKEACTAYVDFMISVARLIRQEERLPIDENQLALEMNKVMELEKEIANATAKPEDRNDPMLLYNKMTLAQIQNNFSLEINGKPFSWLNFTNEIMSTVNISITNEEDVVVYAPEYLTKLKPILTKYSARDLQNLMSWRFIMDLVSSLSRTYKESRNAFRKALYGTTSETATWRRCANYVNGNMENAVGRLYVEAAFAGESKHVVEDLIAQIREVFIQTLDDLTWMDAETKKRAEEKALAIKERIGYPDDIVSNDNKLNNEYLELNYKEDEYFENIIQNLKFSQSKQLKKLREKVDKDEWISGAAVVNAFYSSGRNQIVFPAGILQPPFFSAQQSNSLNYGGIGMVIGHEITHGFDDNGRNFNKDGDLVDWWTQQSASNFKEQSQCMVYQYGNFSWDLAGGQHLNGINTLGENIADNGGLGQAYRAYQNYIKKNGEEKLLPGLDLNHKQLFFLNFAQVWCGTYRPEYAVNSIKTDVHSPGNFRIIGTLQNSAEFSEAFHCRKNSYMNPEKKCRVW
Protocol: 10.0 μg (˜10 units) recombinant Neprilysin (R&D Systems: 1182-ZNC-010) was reconstituted to 100 μL (100 μg/mL, ˜100 units/mL) in assay buffer (50 mM Tris, 50 mM NaCl, 50 mM NaHCO3, adjusted to pH 8.3) to give the enzyme stock solution. Peptide stock solutions were prepared to a concentration of ˜250 μM (˜1.0 mg/mL of 4 kDa peptide) in assay buffer. 100 μL (10 μg, ˜10 units) of neprilysin stock solution was added to 100 μL of peptide stock solution (1.0 mg/mL, ˜100 μg of peptide) and the mixture was co-incubated in a temperature regulated incubator at 37° C. for the duration of the experiment. 25 μL aliquots (˜ 12.5 μg initial peptide) of the peptide-enzyme mixture were periodically withdrawn (t=0, 30 mins, 1 h, 2 h, 4 h and 24 h) and quenched immediately by addition to an equal volume ([…]) of 10% TFA (v/v) in 1:1 water/acetonitrile to arrest proteolytic activity. The quenched aliquot centrifuged at 7800 rpm, and 30 μL of the supernatant was analyzed by analytical RP-HPLC as follows: Analytical RP-HPLC method: Agilent Polaris C8-A column (4.6×100 mm, 3 micron) eluted with a linear binary gradient of 10-90% MeCN (0.1% TFA v/v) in water (0.1% TFA v/v) over either 10 or 15 mins at 1.5 mL min-1 at 40° C. with detection by UV absorption at 210 nm. Manual integration (AUC) allowed estimation of remaining intact peptide over the time course of the experiment.

[3] = target: human GLP-1 receptor (hGLP-1R) (Homo sapiens, UniProt P43220); assay: cAMP production (HTRF) in CHO cells expressing hGLP-1R; assay type: cell-based; set-up: expressed in transfected cells; conditions: for pEC50: cAMP in CHO hGLP-1R cells, geometric mean, read-out: hGLP-1R EC50; for % Relative Potency Ratio: % GLP-1R activity relative to GLP-1 / % GlucR activity relative to glucagon
human GLP-1 receptor (hGLP-1R), sequence (P43220 24-463): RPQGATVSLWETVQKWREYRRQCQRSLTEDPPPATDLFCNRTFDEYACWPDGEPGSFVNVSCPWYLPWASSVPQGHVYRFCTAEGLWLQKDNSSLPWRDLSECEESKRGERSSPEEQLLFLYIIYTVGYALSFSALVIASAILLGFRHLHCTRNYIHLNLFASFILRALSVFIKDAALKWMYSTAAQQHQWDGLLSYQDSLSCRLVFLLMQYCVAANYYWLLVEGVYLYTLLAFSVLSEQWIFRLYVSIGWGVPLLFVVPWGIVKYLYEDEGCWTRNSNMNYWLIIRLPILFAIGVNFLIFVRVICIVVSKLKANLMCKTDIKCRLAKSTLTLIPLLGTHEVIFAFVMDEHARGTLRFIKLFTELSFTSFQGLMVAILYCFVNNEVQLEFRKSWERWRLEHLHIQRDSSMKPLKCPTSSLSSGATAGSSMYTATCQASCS
Summary of the method: (§1)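 Cells were resuspended in assay buffer at batch-optimized density, typically 1×10^5 cells/mL for hGLP-1R and 2×10^5 cells/mL for hGCGR. After 30 min incubation at room temperature with compound, cAMP was measured by two-step HTRF. EC50 values came from 4-parameter logistic fits of % Delta F.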

wildtype (WT) mice = assay: Glucose change in wildtype mice; assay type: in vivo, mouse; conditions: s.c., 3 nmol/kg, 120 min vs 0 min, no somatostatin pretreatment
Summary of the method: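 Wildtype mice aged 8-14 weeks, fasted 2 h, sometimes pre-treated with octreotide 10 mg/kg 30 min before peptide injection. Blood glucose by glucometer at -30, 0, 30, 60, 120, 180, 240 and 360 min; n=4-8/group, mice reused up to 3 times with ≥1 week wash-out.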

[4] = tested on: GLP-1R knockout (KO) mice; assay: Glucose change in GLP-1R knockout mice; assay type: in vivo, mouse; conditions: GLP-1R KO mice, s.c., 3 nmol/kg, 120 min vs 0 min, no somatostatin pretreatment
Summary of the method: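 GLP-1R knockout mice (n=4-8/group, sorted by body weight) were fasted 2 h, and in some studies pretreated with octreotide 10 mg/kg 30 min before peptide injection. Mice were reused up to 3 times with at least 1-week wash-out.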

[5] = target: human glucagon receptor (hGCGR) (Homo sapiens, UniProt P47871); assay: cAMP production (HTRF) in CHO cells expressing hGCGR; assay type: cell-based; set-up: expressed in transfected cells; conditions: cAMP in CHO hGCGR cells, geometric mean, read-out: hGluc-R EC50
human glucagon receptor (hGCGR), sequence (P47871 26-477): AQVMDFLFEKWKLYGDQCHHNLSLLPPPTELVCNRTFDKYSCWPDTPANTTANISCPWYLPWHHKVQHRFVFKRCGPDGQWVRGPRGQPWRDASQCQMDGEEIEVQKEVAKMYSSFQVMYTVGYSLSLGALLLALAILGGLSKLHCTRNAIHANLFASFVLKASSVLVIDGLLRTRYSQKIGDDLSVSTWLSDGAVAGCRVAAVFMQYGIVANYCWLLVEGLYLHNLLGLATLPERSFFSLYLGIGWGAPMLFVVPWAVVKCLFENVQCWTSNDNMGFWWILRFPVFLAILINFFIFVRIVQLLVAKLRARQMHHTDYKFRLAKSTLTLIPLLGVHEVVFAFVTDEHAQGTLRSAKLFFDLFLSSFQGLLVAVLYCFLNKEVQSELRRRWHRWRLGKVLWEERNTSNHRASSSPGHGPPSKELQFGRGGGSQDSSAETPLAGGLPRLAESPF
Summary of the method: as §1

in vivo = conditions: male, C57BL/6, mouse, 10 nmol/kg
Excerpt: Selected test peptides (n=8) were profiled for pharmacokinetic (PK) properties in the mouse after single intravenous (i.v.) or subcutaneous (s.c.) dose. A subset (n=4) meeting the acceptance criteria was subsequently profiled in the dog (single i.v. dose) and non-human primate (single i.v. and s.c. dose). […] Low-binding plasticware containers were used during preparation and sample handling to avoid non-specific binding.
After dosing, PK samples were collected from the dorsal metatarsal vein. Blood of each sample was transferred into plastic micro centrifuge tubes containing EDTA-K2, inverted several times for proper mixing of contents and then placed on wet ice. The blood samples were centrifuged at 4° C. to obtain plasma and stored at −75° C. prior to analysis.
Samples analysis: Samples were analyzed by LC-MS/MS. Calibration standards were injected at the beginning and end of each batch and the determined concentration for each prepared standard was used to construct a calibration curve. Plasma and dose aliquot sample concentrations were determined from the plasma calibration curve.
Data analysis: Plasma concentration data was analyzed by non-compartmental analysis (NCA) using Phoenix Winnonlin v. 8.3.3.33. Linear trapezoidal rule was used for increasing values and log trapezoidal rule was used for decreasing values, applying uniform weighting for lambda_z calculations. Subcutaneous bioavailability was calculated as the ratio AUC(s.c.)0-inf/AUC(i.v.)0-inf. Reported values (Table 18) represent the mean of the individual estimates.

[6] = Table 6, peptides modified at position 17
[7] = Table 7, peptides modified at position 20

Compound	remaining at 5 min, 3.3 mg/mL [1]	remaining at 10 min, 3.3 mg/mL [1]	remaining at 0.25 h, 3.3 mg/mL [1]	remaining at 0.5 h, 3.3 mg/mL [1]	remaining at 0.25 h, 125 µM [2]	remaining at 0.5 h, 125 µM [2]	remaining at 4 h (recombinant Neprilysin)	remaining at 24 h (recombinant Neprilysin)	% intact peptide over time (recombinant Neprilysin)	pEC50 [3, 6]	% Relative Potency Ratio ([3]; Table 6)	WT % glucose change 120 min (wildtype (WT) mice)	GLP-1R KO % glucose change 120 min [4]	pEC50 [5, 6]	pEC50 [3, 7]	% Relative Potency Ratio ([3]; Table 7)	pEC50 [5, 7]	bioavailability (in vivo)	half-life (in vivo; iv)
CCCCCCCCCCCCCCCCCC(=O)N[C@@H](CCC(=O)N[C@@H](CCC(=O)NCCOCCOCCC(=O)NCCOCCOCCC(=O)NCCCC[C@H](NC(=O)[C@H](CO)NC(=O)[C@H](CC(=O)O)NC(=O)[C@H](CC(C)C)NC(=O)[C@](C)(Cc1ccccc1)NC(=O)[C@H](CCCCN)NC(=O)[C@H](CO)NC(=O)[C@@H](NC(=O)[C@H](CC(=O)O)NC(=O)[C@H](CO)NC(=O)[C@@H](NC(=O)[C@](C)(Cc1ccccc1)NC(=O)[C@H](CO)NC(=O)CNC(=O)[C@H](CCC(N)=O)NC(=O)[C@H](CO)NC(=O)[C@@H](N)Cc1c[nH]cn1)[C@@H](C)O)C(C)C)C(=O)N[C@@H](C)C(=O)N[C@@H](C)C(=O)N[C@@H](CCC(N)=O)C(=O)N[C@@H](CC(=O)O)C(=O)N[C@@](C)(Cc1ccccc1)C(=O)N[C@H](C(=O)N[C@@H](CCC(N)=O)C(=O)NC(C)(C)C(=O)N[C@@H](CC(C)C)C(=O)N[C@@H](CCC(=O)O)C(=O)N[C@@H](C)C(=O)NCC(=O)NCC(N)=O)C(C)C)C(=O)O)C(=O)O [Peptide 78] (H-HSQGS[αMeF]TSDVSK[αMeF]LDSK([PEG2-PEG2-γGlu-γGlu-Stearoyl])AAQD[αMeF]VQ[Aib]LEAGG-NH2; N-terminus assumed)	83%	76%	69%	58%	100%	100%	100%	100%	100%	11.95	15.6	−42.0%	51.3%	11.05	–	–	–	–	–
CC[C@H](C)[C@H](NC(=O)C(C)(C)NC(=O)[C@H](CCC(N)=O)NC(=O)[C@@H](NC(=O)[C@H](Cc1ccccc1)NC(=O)[C@H](CC(=O)O)NC(=O)[C@H](CCCCNC(=O)COCCOCCNC(=O)COCCOCCNC(=O)CC[C@H](NC(=O)CCCCCCCCCCCCCCCCC(=O)O)C(=O)O)NC(=O)[C@H](C)NC(=O)[C@H](C)NC(=O)[C@H](CCCNC(=N)N)NC(=O)[C@H](CO)NC(=O)[C@H](CC(=O)O)NC(=O)[C@H](CC(C)C)NC(=O)[C@](C)(Cc1ccccc1)NC(=O)[C@H](CCCCN)NC(=O)[C@H](CO)NC(=O)[C@@H](NC(=O)[C@H](CC(=O)O)NC(=O)[C@H](CO)NC(=O)[C@@H](NC(=O)[C@](C)(Cc1ccccc1)NC(=O)[C@H](CO)NC(=O)CNC(=O)[C@H](Cc1c[nH]cn1)NC(=O)C(C)(C)NC(=O)[C@@H](N)Cc1c[nH]cn1)[C@@H](C)O)C(C)C)C(C)C)C(=O)N[C@@H](C)C(=O)N[C@@H](CC(N)=O)C(=O)N[C@H](C(N)=O)[C@@H](C)O [Peptide 287] (H-H[Aib]HGS[αMeF]TSDVSK[αMeF]LDSRAAK([AEEA-AEEA-γGlu-C18 diacid])DFVQ[Aib]IANT-NH2)	–	–	–	–	0%	0%	77%	59%	100%	–	–	–	–	–	10.56	1.9	10.58	–	–
CC(C)C[C@H](NC(=O)[C@H](Cc1c[nH]c2ccccc12)NC(=O)[C@H](CCCNC(=N)N)NC(=O)[C@@H](NC(=O)[C@H](Cc1ccccc1)NC(=O)[C@H](CC(=O)O)NC(=O)[C@H](CCC(N)=O)NC(=O)[C@H](C)NC(=O)[C@H](CCCNC(=N)N)NC(=O)[C@H](CCCCNC(=O)COCCOCCNC(=O)COCCOCCNC(=O)CC[C@H](NC(=O)CCCCCCCCCCCCCCCCC(=O)O)C(=O)O)NC(=O)[C@H](CCCCN)NC(=O)[C@H](CC(=O)O)NC(=O)[C@H](CC(C)C)NC(=O)[C@](C)(Cc1ccccc1)NC(=O)[C@H](CCCCN)NC(=O)[C@H](CO)NC(=O)[C@@H](NC(=O)[C@H](CC(=O)O)NC(=O)[C@H](CO)NC(=O)[C@@H](NC(=O)[C@H](Cc1ccccc1)NC(=O)[C@@H](NC(=O)CNC(=O)[C@H](CCC(N)=O)NC(=O)C(C)(C)NC(=O)[C@@H](N)Cc1c[nH]cn1)[C@@H](C)O)[C@@H](C)O)C(C)C)C(C)C)C(=O)N[C@@H](CC(C)C)C(=O)NC(C)(C)C(=O)N[C@@H](CCC(=O)O)C(N)=O [Peptide 420] (H-H[Aib]QGTFTSDVSK[αMeF]LDKK([AEEA-AEEA-γGlu-C18 diacid])RAQDFVRWLL[Aib]E-NH2; N-terminus assumed)	–	–	–	–	–	–	–	–	–	10.64	3.2	–	–	10.43	–	–	–	49%	5.7 h
